Source: patent US12215100B2, “Anticancer compounds” (Pharma Mar, S.A., priority 2018, dated 2025)

Tests used:
Format in all cases: cell-based, human
[1] = system: PSN-1; test: SRB colorimetric cytotoxicity assay, PSN-1; settings: Homo sapiens, PSN1, 72 h, 72 hours treatment, pancreatic adenocarcinoma
From the text: (§1) The aim of this assay is to evaluate the in vitro cytostatic (ability to delay or arrest tumor cell growth) or cytotoxic (ability to kill tumor cells) activity of the samples being tested.
(§2) A colorimetric assay, using sulforhodamine B (SRB) reaction has been adapted to provide a quantitative measurement of cell growth and viability (following the technique described by V. Vichai and K. Kirtikara (2006) Nature Protoc. 1, 1112-1116.)
(§3) This form of assay employs 96-well cell culture microplates. All the cell lines used in this study were obtained from the American Type Culture Collection (ATCC), unless otherwise indicated, and derive from different types of human cancer.
(§4) Cells were maintained in Dulbecco's Modified Eagle Medium (DMEM) (for A549, HT-29 and MDA-MB-231) or RPMI (for PSN-1) supplemented with 10% Fetal Bovine Serum (FBS), 2 mM L-glutamine, 100 U/mL penicillin and 100 U/mL streptomycin at 37° C., 5% CO2 and 98% humidity. For the experiments, cells were harvested from subconfluent cultures using trypsinization and resuspended in fresh medium before counting and plating.
(§5) Cells were seeded in 96 well microtiter plates, at 5×10^3 cells per well in aliquots of 150 μL, and allowed to attach to the plate surface for 18 hours (overnight) in drug free medium. After that, one control (untreated) plate of each cell line was fixed (as described below) and used for time zero reference value. […] After 72 hours treatment, the antitumor effect was measured by using the SRB methodology: Briefly, cells were washed twice with PBS, fixed for 15 min in 1% glutaraldehyde solution at room temperature, rinsed twice in PBS, and stained in 0.4% SRB solution for 30 min at room temperature. Cells were then rinsed several times with 1% acetic acid solution and air-dried at room temperature. SRB was then extracted in 10 mM trizma base solution and the absorbance measured in an automated spectrophotometric plate reader at 490 nm. Effects on cell growth and survival were estimated by applying the NCI algorithm (Boyd M R and Pauli K D. Drug Dev Res. 1995, 34, 91-104).
(§6) Using the mean±SD of triplicates, a dose-response curve was automatically generated using nonlinear regression analysis to a 4-parameter logistic curve. Three reference parameters were calculated (NCI algorithm) by automatic interpolation: GI50=compound concentration that produces 50% cell growth inhibition, as compared to control cultures; TGI=total cell growth inhibition (cytostatic effect), as compared to control cultures, and LC50=compound concentration that produces 50% net cell killing (cytotoxic effect).

[2] = system: HT29; test: SRB colorimetric cytotoxicity assay, HT29; settings: Homo sapiens, HT-29, 72 h, 72 hours treatment, colorectal adenocarcinoma
From the text: as §1, §2, §3, §4, §5, §6

[3] = system: A549; test: SRB colorimetric cytotoxicity assay, A549; settings: Homo sapiens, A549, 72 h, 72 hours treatment, lung carcinoma (NSCLC)
From the text: as §1, §2, §3, §4, §5, §6

[4] = system: MDA-MB-231; test: SRB colorimetric cytotoxicity assay, MDA-MB-231; settings: Homo sapiens, MDA-MB-231, 72 h, 72 hours treatment, breast adenocarcinoma
From the text: as §1, §2, §3, §4, §5, §6

Compound	GI50 [1]	GI50 [2]	GI50 [3]	GI50 [4]
CCC[C@@H](NC(=O)[C@@]1(C)CSC(C(C)(OCC)OCC)=N1)c1cc(OCC2CC2)cc(=O)o1 [Compound 131]	0.312 µM	0.196 µM	0.208 µM	0.333 µM
COc1cc([C@@H](CC(C)C)NC(=O)[C@]2(C)CSC(/C(C)=N/O)=N2)oc(=O)c1 [Compound 69]	1.52 µM	1.59 µM	2.2 µM	1.62 µM
CCC[C@@H](NC(=O)[C@]1(C)CSC(/C(C)=N/OCCCN)=N1)c1cc(OCC2CC2)cc(=O)o1 (stereo in doubt) [Compound 158]	0.00627 µM	0.00606 µM	0.00543 µM	0.0121 µM
C=CCOc1cc([C@@H](CCC)NC(=O)[C@]2(C)CSC(/C(C)=N\O)=N2)oc(=O)c1 [Compound 74a]	0.0125 µM	0.00761 µM	0.0081 µM	0.00982 µM
C=CCOc1cc([C@@H](CCC)NC(=O)[C@]2(C)CSC(C(C)(OCC)OCC)=N2)oc(=O)c1 [Compound 50]	0.814 µM	0.514 µM	0.643 µM	0.536 µM
CCCCCCCCCCCCCCCCCOc1cc([C@@H](CCC)NC(=O)[C@]2(C)CSC(/C(C)=N/O)=N2)oc(=O)c1 [Compound 73]	0.347 µM	0.396 µM	0.38 µM	0.33 µM
C=CCOc1cc([C@@H](CCC)NC(=O)[C@]2(C)CSC(C(C)=NOCCCN3CCN(C)CC3)=N2)oc(=O)c1 [Compound 163]	0.0164 µM	0.0156 µM	0.0161 µM	0.0166 µM
CCC[C@@H](NC(=O)[C@]1(C)CSC(/C(C)=N/OC(=O)CCCCCNC(=O)OC(C)(C)C)=N1)c1cc(OCC2CC2)cc(=O)o1 [Compound 166]	0.0063 µM	0.00457 µM	0.00473 µM	0.00709 µM
C=CCOc1cc([C@@H](CCC)NC(=O)[C@@]2(C)CSC(/C(C)=N/O)=N2)oc(=O)c1 [Compound 136]	0.081 µM	0.0859 µM	0.0712 µM	0.0785 µM
C=CCOc1cc([C@@H](CCC)NC(=O)[C@]2(C)CSC(/C(C)=N/O[C@H]3O[C@H](CO)[C@@H](O)[C@H](O)[C@@H]3O)=N2)oc(=O)c1 [Compound 112]	1.23 µM	1.11 µM	4.04 µM	2.11 µM
CCC[C@@H](NC(=O)[C@]1(C)CSC(/C(C)=N/O)=N1)c1cc(OCC2CC2)cc(=O)o1 [Compound 76]	0.00308 µM	0.0038 µM	0.00356 µM	0.0038 µM
CCC[C@@H](NC(=O)[C@]1(C)CSC(/C(C)=N/O)=N1)c1cc(OCCCN)cc(=O)o1 [Compound 89]	6.36 µM	8.95 µM	16.5 µM	5.89 µM
C#CCOc1cc([C@@H](CCC)NC(=O)[C@]2(C)CSC(/C(C)=N/OCCCN)=N2)oc(=O)c1 (stereo in doubt) [Compound 156]	0.00243 µM	0.00243 µM	0.00128 µM	0.0026 µM
CCC[C@@H](NC(=O)[C@]1(C)CSC(C(C)(OCC)OCC)=N1)c1cc(OCC2CC2)cc(=O)o1 [Compound 52]	1.77 µM	1.21 µM	1.27 µM	1.29 µM
CCC[C@@H](NC(=O)[C@]1(C)CSC(C(C)=O)=N1)c1cc(OC)cc(=O)o1 [Compound 42]	5.19 µM	8.73 µM	24.6 µM	4.64 µM
CCC[C@@H](NC(=O)[C@]1(C)CSC(/C(C)=N/OCCC2COC(C)(C)O2)=N1)c1cc(OCC2CC2)cc(=O)o1 (stereo partly drawn) [Compound 159]	0.0509 µM	0.0637 µM	0.0491 µM	0.0673 µM
CCC[C@@H](NC(=O)[C@]1(C)CSC(/C(C)=N/O)=N1)c1cccc(=O)o1 [Compound 128]	0.0882 µM	0.105 µM	0.0911 µM	0.285 µM
C=CCOc1cc([C@@H](CCC)NC(=O)[C@@]2(C)CSC(C(C)=O)=N2)oc(=O)c1 [Compound 133]	5.61 µM	4.59 µM	9.43 µM	3.82 µM

Compound	GI50 [1]	GI50 [2]	GI50 [3]	GI50 [4]
C=CCOc1cc([C@@H](CCC)NC(=O)[C@]2(C)CSC(/C(C)=N/OP(=O)(OCc3ccccc3)OCc3ccccc3)=N2)oc(=O)c1 [Compound 172]	0.1 µM	0.0569 µM	0.0809 µM	0.108 µM
CCC[C@@H](NC(=O)[C@]1(C)CSC(/C(C)=N/O)=N1)c1cc(O)cc(=O)o1 [Compound 88]	18.8 µM	11.4 µM	20.4 µM	21.8 µM
CCC[C@@H](NC(=O)[C@]1(C)CSC(C(C)(OCC)OCC)=N1)c1cc(OCC)cc(=O)o1 [Compound 46]	4.62 µM	2.18 µM	2.42 µM	1.52 µM
C=CCOc1cc([C@@H](CCC)NC(=O)[C@]2(C)CSC(/C(C)=N/OCCCCO)=N2)oc(=O)c1 [Compound 115]	0.0136 µM	0.00584 µM	0.0111 µM	0.0119 µM
C=C(OCC)C1=N[C@](C)(C(=O)N[C@H](CCC)c2cc(OCC3CC3)cc(=O)o2)CS1 [Compound 185]	0.14 µM	0.207 µM	0.161 µM	0.228 µM
CCC[C@@H](NC(=O)[C@]1(C)CSC(/C(C)=N/OCCCN)=N1)c1cc(OC)cc(=O)o1 [Compound 98]	0.0274 µM	0.0251 µM	0.0221 µM	0.0342 µM
CCC[C@@H](NC(=O)[C@]1(C)CSC(/C(C)=N/O)=N1)c1cc(C)cc(=O)o1 [Compound 78]	0.0328 µM	0.0438 µM	0.0249 µM	0.0438 µM
CCC[C@@H](NC(=O)[C@]1(C)CSC(/C(C)=N\O)=N1)c1cc(OCC2CC2)cc(=O)o1 [Compound 76a]	0.00451 µM	0.00427 µM	0.0038 µM	0.00451 µM
CCC[C@@H](NC(=O)[C@]1(C)CSC(/C(C)=N/OCCOCCOCCOCC)=N1)c1cc(OC)cc(=O)o1 [Compound 96]	2.22 µM	1.51 µM	1.77 µM	2.95 µM
C=CCOc1cc([C@@H](CCC)NC(=O)[C@]2(C)CSC(/C(C)=N/O)=N2)[nH]c(=O)c1 [Compound 190]	0.344 µM	0.244 µM	0.59 µM	0.239 µM
C=CCOc1cc([C@@H](CCC)NC(=O)[C@]2(C)CSC(/C(C)=N/OCCOCCOCCOCC)=N2)oc(=O)c1 [Compound 144]	0.125 µM	0.0652 µM	0.0722 µM	0.162 µM
CCC[C@@H](NC(=O)[C@]1(C)CSC(/C(C)=N/OCCCCOP(=O)(OC(C)(C)C)OC(C)(C)C)=N1)c1cc(OCC2CC2)cc(=O)o1 [Compound 191]	0.875 µM	0.554 µM	0.496 µM	0.612 µM
C#CCO/N=C(\C)C1=N[C@](C)(C(=O)N[C@H](CCC)c2cc(OC)cc(=O)o2)CS1 [Compound 94]	0.0358 µM	0.0226 µM	0.0358 µM	0.0358 µM
C=CCOc1cc([C@@H](CCC)NC(=O)[C@]2(C)CSC(/C(C)=N/OC(=O)[C@H]3O[C@@H]4OC(C)(C)O[C@@H]4[C@H]4OC(C)(C)O[C@H]43)=N2)oc(=O)c1 [Compound 170]	0.00271 µM	0.00241 µM	0.00301 µM	0.00557 µM
C=CCOc1cc([C@@H](CCC)NC(=O)[C@]2(C)CSC(/C(C)=N/O)=N2)oc(=O)c1 [Compound 74]	0.00319 µM	0.00294 µM	0.00417 µM	0.00491 µM
C=CCOc1cc([C@@H](CCC)NC(=O)[C@]2(C)CSC(C(C)=NOCCCCN3CCOCC3)=N2)oc(=O)c1 [Compound 161]	0.00513 µM	0.00547 µM	0.00496 µM	0.00649 µM
CCC[C@@H](NC(=O)[C@]1(C)CSC(/C(C)=N/OCCCCOP(=O)(O)O)=N1)c1cc(OCC2CC2)cc(=O)o1 [Compound 192]	0.0279 µM	0.00715 µM	0.00907 µM	0.0164 µM
CCC[C@@H](NC(=O)[C@@]1(C)CSC(C(C)(OCC)OCC)=N1)c1cc(OC)cc(=O)o1 [Compound 129]	5.45 µM	3.63 µM	6.13 µM	3.86 µM
